Columns and labels:
TNFα [1] = molecular target: T1, TNFα (Homo sapiens, UniProt P01375); experiment: Meso Scale Discovery (MSD) assay of TNFα binding to plate-coated TNFR-ECD; set-up: purchased R&D Systems; conditions: single point, 100 μM, 5% DMSO
Procedure: 384 well uncoated plates (standard binding) Meso Scale Discovery plates (MSD) were coated overnight with the extracellular domain of TNFR (TNFR-ECD) (10 μl, 1 ug/mL in PBS). To ensure even distribution plates were centrifuged at 1000 rpm for 2 minutes. The plates were then sealed and stored at +4° C. overnight.
The wells of the plates were then washed three times in 50 μl phosphate buffered saline pH 6.5 (PB) with 0.05% Tween 20 (wash buffer), and then blocked with 50 μl 2% BSA. The plates were then incubated at room temperature on a shaker (600 rpm) for 2 hours. After this incubation plates were washed (3×50 μl wash buffer per well). During the blocking incubation, compounds of formulae (3) and (15) were pre-incubated with TNF (R&D Systems) prior to addition to the pre-blocked and washed MSD plates. For a single point assay as shown in FIG. 2A the compounds were assayed at a final concentration of 100 μM (5% final v/v DMSO). […]
The plates were then washed (3×50 μl wash buffer per well), followed by the addition of 50 μl MSD Read buffer T plus surfactant (diluted 1 in 2 in H2O) and read on a SECTOR Imager 6000.
For single point assays percentage inhibition was calculated using a control sample without compound.
For EC50s determination results were calculated by standard means using a 4 parameter logistic model (sigmoidal dose response model).
Target sequence in this assay (P01375 77-233 limits assumed): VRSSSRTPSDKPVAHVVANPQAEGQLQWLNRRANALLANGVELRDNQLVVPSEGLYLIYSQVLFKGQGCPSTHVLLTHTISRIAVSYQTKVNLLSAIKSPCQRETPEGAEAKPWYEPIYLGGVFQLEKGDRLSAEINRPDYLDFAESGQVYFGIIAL
Target sequence in this assay (P19438 30-211 partner limits assumed): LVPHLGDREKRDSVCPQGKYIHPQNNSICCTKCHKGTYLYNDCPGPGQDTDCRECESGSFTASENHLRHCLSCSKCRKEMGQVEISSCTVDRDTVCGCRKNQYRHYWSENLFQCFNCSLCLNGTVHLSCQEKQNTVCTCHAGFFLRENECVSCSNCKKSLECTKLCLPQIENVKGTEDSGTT

human TNFα trimer = molecular target: T2, human TNFα trimer (Homo sapiens, UniProt P01375); experiment: RMSD of crystal structure of compound-bound TNFα trimer to Reference Structure Compound 34; conditions: Cα atoms of β-sheet residues, all three subunits, PyMOL
T2 construct: His6Smt-tag (N, cleaved yes); made in house; host or cells: E. coli (vector pEMB54)
Procedure: Cells were pre-cultured at 37° C. in rich media, induced with the addition of 0.1% arabinose and allowed to express overnight at 25° C. in vector pEMB54. This vector introduces a cleavable N-terminal His6Smt-tag. The cells were lysed and purified by Ni-NTA chelate chromatography. The fusion protein was eluted with buffer containing imidazole and cleaved by the addition of protease. The final cleaved TNFα protein was purified by a subtractive Ni chelate chromatography step to remove the fusion tag and further purified by size exclusion chromatography to remove the remaining impurities. The final TNFα product was typically concentrated to 20.0 mg/ml and flash frozen in liquid nitrogen.
Purified human TNF[…] (20.0 mg/ml, VC 2043) was diluted to 4-7 mg/ml in 10 mM HEPES pH 7.5, 150 mM NaCl buffer followed by overnight incubation at 4° C. with 0.3-0.5 mM compound (1-2 molar excess). The TNF[…] compound complexes were crystallized by sitting drop vapor diffusion by mixing 0.5 μl of complex with 0.5 μl of 21.44% PEG 3350, 100 mM Tris, pH 9.0 (UCB1474433); or 22.0% PEG 3350, 100 mM glycine, 100 mM Tris, pH 8.5 (UCB1480595); or 25.6% PEG 3350, 100 mM Tris, pH 8.3, 3% xylitol (UCB5143079) or other formulation with varying precipitant concentration or additives over 100 μl of the same crystallization solution. Other formulations for other compounds include a range of PEG 3350 of 8-28%. Other PEG-like additives include PEG 1000 (8-18%) or PEG 2000 (10-13%). Other additives include MPD (5-13%) or 200 mM NaCl. Other buffers include 100 mM Hepes (pH 7-8), 100 mM Tris or bis-Tris (pH 6.7-9.0). Other non-PEG 3350 crystallization solutions consist of PEG 2000 (14-19%), 100 mM Hepes, pH 8, 25 mM arginine; or 17% PEG 10000, 200 mM ammonium acetate, 100 mM bis-Tris, pH 5.5; or 30% PEG 2000 MME, 100 mM sodium acetate, 100 mM Mes, pH 6.5.
Crystals were briefly soaked in ethylene glycol and/or vitrified directly in liquid nitrogen for data collection.
X-ray diffraction data were collected from a synchrotron source at a wavelength, most frequently, of 0.976484 Å and recorded on CCD detector. […] The structure of the human TNF[…] (VC 2043) complexed with compound was solved by molecular replacement using Phaser with input model of 1TNF. […] Iterative manual model building using Coot (Emsley and Cowtan, 2004) and Refmac (Murshudov et al., 1997) continued until R and Rfree converged. […] The resolution of the structures was most frequently around 2.15 Å.
Root mean squared deviation (RMSD) calculations were carried out to ascertain the distance of each of the crystal structures of distorted TNFα trimer to a reference structure.
RMSD calculations were done using the program PyMOL (www.pymol.org). In this example version 1.7. was used. The cmd.rms PyMOL command was used with defined pairs of atoms. The atoms used were the backbone Ca's of certain residues within the β-strands of TNFα. The residue numbers used are shown below:
These residue numbers are those within the published structure of TNFα with PDB code 1A8M and within the distorted TNFα trimer structures of this invention. The residue numbers are also according to the sequence of SEQ ID NO:36. The residues in each of the three chains with the TNFα structures, (labelled A, B, and C according to our instructions) were used.
The command cmd.rms was used with the following arguments:
rms=cmd.rms(“(moving)”, “(target)”, matchmaker=4, quiet=0, cycles=0)
where “(moving)” is the selection of atoms in a given TNFα structure and “(target)” is the selection of equivalent atoms within the reference structure.
The RMSD was calculated for each structure against all others. The “representative structure” or “Reference Structure” was chosen to be the one with the lowest sum RMSD to all others—the structure “Compound 34” or “Compound34.pdb”.
Reference Structure (Compound 34) and Query Structure (Compound 64) were overlaid (see FIG. 17 with Reference Structure emboldened) by: • 1. […]

TNFR2 = experiment: Membrane TNF - TNFR2 signalling (NS0-mTNF cells with expanded primary human T cells); assay type: cell-based; conditions: compound bound to membrane TNFα on NS0 cells
Procedure: A murine B cell line (NS0-mTNF) stably expressing non-cleavable human membrane TNF due to a mutation at the TACE cleavage site was used to trigger TNFR2 signalling in PHA-L and IL-2 expanded primary human T cells. […] TNFR1 was also present on these cells but was blocked using a UCB mouse anti-human-TNFR1 antibody 5R16.
NS0-mTNF cells were cultured with 10 μM NCEs for 1 hour to allow binding of Compounds to membrane TNF. T cells were then mixed with the NS0-mTNF cells and following a brief spin to allow cell-cell contact, cells were incubated for 5 min and then lysed in lysis buffer. […] First TRAF-2 recruitment to the TNFR2 receptor was measured in Co-immunoprecipitation experiments as a measure of membrane proximal signalling. After lysis of cells TNFR2 was isolated from the lysate using polyclonal goat anti-human TNFR2 antibodies followed by protein G sepharose bead purification. TNFR2 associated TRAF-2 was then measured in immunoblots after running the purified TNFR2 preparation on a SDS-PAGE. In addition, the whole cell lysate was also sampled for the presence of pNFκB using SDS-PAGE and pNFκB specific immunoblots.
• PBMC from 3 three different donors were cultured in 6 well plates with 10×10^6 cells per well in 5 ml of RPMI1640 supplemented with 10% FCS, 1% human serum, HEPES GlutaMAX, 25 U/ml hIL-2 (Roche) and 2 μg/ml PHA-L (Sigma) to grow out T cells • after 3 days cells were resuspended and cultured in 75 cm^2 flasks with the same media as above, but lacking the PHA-L • growth of culture was monitored and media was changed every 3 days.
This is a 2× solution • prepare 500 μl of 10×10^6 NS0-wt cells • After 1 h add 500 μl human T cells (50×10^6 cells/test) in human media at 37° C. T cells were preincubated for 15 min @37° C. with 50 μg/ml 5R16 anti-TNFR1 Fab-PEG to block signalling via TNFR1 prior adding to the NS0 cells. […]

TNFα [2] = molecular target: T1, TNFα; experiment: Surface plasmon resonance kinetics of compound binding to immobilised TNFα
Procedure: Surface plasmon resonance was used to measure the association rate, the dissociation rate and the affinity of the compounds of formulae (3) and (15) for TNFα (FIGS. 12A and B). For the purpose of this study a Biacore T100/T200 was used.
TNFα was immobilised at pH5 to a level of 5-8 KRU onto a CMS sensor in HBS-P buffer (10 mM HEPES pH 7.4, 0.15 M NaCl, 0.005% Surfactant P20, BIAcore, GE Healthcare). The TNFα was then equilibrated in HBS-P with 5% DMSO for at least 5 hours. The samples were diluted from 10 mM stocks into DMSO matched buffer and left to solubilise for at least 5 hours. The flow rate was […].
This assay was performed by adding 4 or 5 concentrations of compound starting from a highest concentration of 25 μM for compound of formula (3) and 1 μM for compound of formula (15) and then serially diluting this sample. Background subtraction binding curves were analysed using the BIAevaluation software following standard procedures. Binding, affinity and kinetic parameters were determined using Biacore software. The kinetic data were fitted using the levenberg marquardt algorithm.
Target sequence in this assay (P01375 77-233 limits assumed): as the sequence (P01375 77-233 limits assumed) above

T2 sequence (P01375 with tags, fused parts or gaps): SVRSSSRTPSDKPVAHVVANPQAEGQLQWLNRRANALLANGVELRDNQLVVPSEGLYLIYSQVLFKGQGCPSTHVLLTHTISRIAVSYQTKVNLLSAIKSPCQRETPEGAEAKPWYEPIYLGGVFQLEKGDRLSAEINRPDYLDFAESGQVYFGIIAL

| Compound | % inhibition of TNFα binding to the TNF receptor (TNFα [1]) | RMSD (Å) with Compound 34 (human TNFα trimer) [Å] | TNFR2 specific membrane proximal (TRAF-2 recruitment to TNFR2) and downstream (pNFκB) signalling (TNFR2) | kon (TNFα [2]) [M⁻¹ s⁻¹] |
| --- | --- | --- | --- | --- |
| Cc1cc2occ(CN(C)CCN(C)Cc3cn(-c4cccc(C(F)(F)F)c4)c4ccccc34)c(=O)c2cc1C [SPD-304] | +80% |  |  |  |
| Cc1nc2ccc(-c3ccc(N4CCNCC4)nc3)cn2c1Cc1ccccc1OC(F)F [Compound 43] |  | 0.36 | does not impair |  |
| O=C1CCCN1c1cccc(OCc2nc3ccc(-c4ccc(=O)[nH]c4)cc3n2Cc2ccccc2OC(F)F)c1 [Compound 39] |  | 0.22 | does not impair | 5470 |
| Cc1nc(Cn2c(COc3ccc(C(N)=O)cc3)nc3ccc(-c4cc[n+]([O-])cc4)cc32)cs1 [Compound 22] |  | 0.23 |  |  |

— patent US11674967B2, “Method of identifying potential inhibitors of APO TNFα trimers” (UCB BIOPHARMA SRL, priority 2015, dated 2023)
